Measurements as given in US6887878B2, “KMST isoeugenol derivatives and pharmaceutical activity” (Ing-Jun Chen, priority 2003, dated 2005).
“Also recorded” adds a separate entry of the source.

Key:
M2 = M2 receptor binding; design: species or system guinea pig
rats = assay: LPS-induced mortality; conditions: rat, in vivo
β1 receptors = target: T1, β1 receptors (Rattus norvegicus, UniProt P18090); assay: [3H]CGP-12177 receptor binding in rat ventricle; design: species or system Wistar rat; conditions: [3H]CGP-12177, rat ventricle
T1 construct: from tissue; host or cells: Wistar rat heart (ventricle) membranes
Experimental: (§1) The homogenate was pressure filtered through muslin. Filtrate was centrifuged at 1000 g for 10 min. […] Protein content was determined by Bradford's method.

[1] = system: pentobarbital-anesthetized rats; assay: intravenous injection in pentobarbital-anesthetized rats, BP and HR; format: in vivo, Wistar rat; conditions: intravenous administration
Experimental: (§2) In brief, Wistar rats weighing 250-300 g were anesthetized with pentobarbital sodium (50 mg kg^−1, i.p.). Following tracheal cannulation, systemic arterial BP and HR were recorded from the femoral artery by a pressure transducer (model P10EZ; Spectramed, Oxnard, Calif., U.S.A.) connected to a recorder (GOULD, Valley View, Ohio, Model P50). Body temperature was maintained at 37° C. by an electric heating pad. A femoral vein was cannulated for intravenous injection of drugs and LPS (10 mg kg^−1).

anesthetized rats [2] = assay: intra-cisternal injection and NTS microinjection, BP and HR; format: in vivo, rat
Experimental: Intra-cisternal injections of KMST (0.3, 0.03 μmol), yohimbine [0.03 μmol), and clonidine (38 pmol), were performed in rats as described by Duan et al (1987). Briefly, rats weighing 250-300 g were anaesthetized with pentobarbital sodium (50 mg kg^−1, i.p.) and mounted in a David-Kopf stereotaxic instrument (Yeh J L. et al., Brain. Res. Bull., 30:641-648, 1993). The calvarium was exposed and a 1 mm diameter trephine hole was drilled 1.8 mm lateral to the coronary and 1.5 mm posterior to the sagittal sutures. A cannula (0.7 mm O.D.) connected to a Hamilton syringe (RN-705, 5051) by PE-50 was advanced 4.7 mm into the brain using the electrode carrier.
Rats were anesthetized and placed in a David-Kopf stereotaxic instrument. The cerebellum was exposed after removing the skin and occipital bone. The NTS coordinates were (reference to lambda) P 5-6 mm, L/R 0.5-1 mm, depth 6-7.5 mm (Wu et al., 1994). NTS injection sites were confirmed by decreasing BP and HR following micro-injection of 1% L-glutamate. […] Pre-treatment with clonidine was performed 15 min before administration of test agents. At the end of experiments, the animals were sacrificed. The brain was removed and sectioned for histological confirmation of the drug application site.

[3] = system: serotonin-induced human platelet aggregation; assay: serotonin-induced human platelet aggregation; format: cell-based; conditions: serotonin 5 μM, PRP; read-out: IC50 serotonin-induced human platelet aggregation
Experimental: Venous blood from human volunteer donors was collected in 10 ml Monovette containing 1 ml citrate solution (0.106M trisodium citrate; Sarstedt, Nümbrecht, Germany) and centrifuged (400 g, 10 min, 20° C.). […] After centrifugation (10 min, 2000 g, 20° C.), the platelet pellet was resuspended in wishing buffer (113 mM NaCl, 4 mM Na2HPO4, 24 mM NaH2PO4, 4 mM KCl, 0.2 mM EGTA(Ethylene glycol-bis-(2-aminoethyl ether) N,N,N′-tetraacetic acid), 0.1% (wt/vol) glucose, pH 6.0) and recentrifuged (10 min, 2000 g, 20° C.). The washed platelets were resuspended in incubation buffer (134 mM NaCl, 12 mM NaHCO3, 2.9 mM KCl, 0.34 mM NaH2PO4, 5 mM HEPES (N-(2-hydroxyethyl) piperazine-N′-(2-ethanesulfonic acid)), 5 mM glucose, pH7.4), cells were counted in a Sysmex hematology analyzer (Sysmex, CDA-500, Japan) and adjusted to a final concentration of 2×10^8 platelets/ml.
The aggregation of the platelets in platelet-rich plasma (PRP) was measured as a change in light absorbance by a Payton dual-channel aggregometer (NBS, Hema tracer, Japan). PRP (240 μL) was stirred (700 rpm) at 37° C. for 1 min, and 5 μL epinephrine (final concentration 5 μM), serotonin (final concentration 5 μM) was added. After which the rate of primary aggregation (1/min) and maximum aggregation (%) at 5 min were recorded. To study the effects of compounds on epinephrine or serotonin-induced aggregation, PRP was incubated with 5 μL of compounds at various concentrations for 1 min before epinephrine or serotonin was added. IC50 values given were calculated from the secondary aggregation data.

[4] = system: phenylephrine-induced contractions in rat thoracic aorta; assay: LPS-induced vascular hyporeactivity: phenylephrine-induced contractions in rat thoracic aorta; format: in vivo, Wistar rat; conditions: for pD2 at 3rd hr / pD2 at 5th hr: pD2 to phenylephrine
5-HT re-uptake = target: T2, 5-HT re-uptake (Rattus norvegicus, UniProt P31652); assay: 5-HT re-uptake in cerebral cortex synaptosomes; format: biochemical, Wistar rat; conditions: read-out: IC50 of 5-HT uptake inhibition
T2 construct: the cerebral cortex or striatum was dissected and crude synaptosomes were prepared; from tissue; host or cells: crude synaptosomes of Wistar rat cerebral cortex
Experimental: Wistar rats weighting 150-200 g were decapitated, the cerebral cortex or striatum was dissected and crude synaptosomes were prepared. […] Uptake was initiated by the addition of 50 μl of [^3H] […] Saline was added to the incubation mixture, which was then filtered through a Whatman GF/B glass filter under reduced pressure. To determine nonspecific uptake, incubation was performed at 0° C.

α1-adrenergic receptor = assay: noradrenaline-induced contraction in isolated rat thoracic aorta (pA2); design: species or system Wistar rat; conditions: Schild plot, mean ± SEM of eight, listed as KMST
Experimental: (§3) Clonidine, noradrenaline and serotonin (10^−8˜10^−4 M) were added to the bath to induce contractions after pretreatment with KMST for 15 min.

α2-adrenergic receptor = assay: clonidine-induced contraction in isolated rat thoracic aorta (pA2); design: species or system Wistar rat; conditions: Schild plot, mean ± SEM of eight, listed as KMST
Experimental: as §3

anesthetized rats [5] = assay: LPS-induced hypotension; format: in vivo, Wistar rat; conditions: pretreatment, intravenous LPS
Experimental: as §2

β2 receptors = target: T3, β2 receptors (Rattus norvegicus, UniProt P10608); assay: [3H]CGP-12177 receptor binding in rat lung; design: species or system Wistar rat; conditions: [3H]CGP-12177, rat lung
T3 construct: from tissue; host or cells: Wistar rat lung membranes
Experimental: as §1

[6] = agent given after LPS injection (1 hr)
[7] = agent given before LPS injection (30 min)

T3 sequence (P10608 whole entry): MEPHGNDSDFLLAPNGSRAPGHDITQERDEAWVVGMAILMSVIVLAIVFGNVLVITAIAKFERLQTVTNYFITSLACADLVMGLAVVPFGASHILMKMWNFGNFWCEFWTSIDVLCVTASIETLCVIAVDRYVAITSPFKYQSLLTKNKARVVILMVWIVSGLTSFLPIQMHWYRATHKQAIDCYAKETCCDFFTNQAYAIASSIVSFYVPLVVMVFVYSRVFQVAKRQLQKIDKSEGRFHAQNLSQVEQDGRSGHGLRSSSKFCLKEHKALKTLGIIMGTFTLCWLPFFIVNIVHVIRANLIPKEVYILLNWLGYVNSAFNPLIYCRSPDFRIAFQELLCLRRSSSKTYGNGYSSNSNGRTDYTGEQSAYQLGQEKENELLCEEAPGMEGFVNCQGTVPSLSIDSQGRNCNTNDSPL
T2 sequence (P31652 whole entry): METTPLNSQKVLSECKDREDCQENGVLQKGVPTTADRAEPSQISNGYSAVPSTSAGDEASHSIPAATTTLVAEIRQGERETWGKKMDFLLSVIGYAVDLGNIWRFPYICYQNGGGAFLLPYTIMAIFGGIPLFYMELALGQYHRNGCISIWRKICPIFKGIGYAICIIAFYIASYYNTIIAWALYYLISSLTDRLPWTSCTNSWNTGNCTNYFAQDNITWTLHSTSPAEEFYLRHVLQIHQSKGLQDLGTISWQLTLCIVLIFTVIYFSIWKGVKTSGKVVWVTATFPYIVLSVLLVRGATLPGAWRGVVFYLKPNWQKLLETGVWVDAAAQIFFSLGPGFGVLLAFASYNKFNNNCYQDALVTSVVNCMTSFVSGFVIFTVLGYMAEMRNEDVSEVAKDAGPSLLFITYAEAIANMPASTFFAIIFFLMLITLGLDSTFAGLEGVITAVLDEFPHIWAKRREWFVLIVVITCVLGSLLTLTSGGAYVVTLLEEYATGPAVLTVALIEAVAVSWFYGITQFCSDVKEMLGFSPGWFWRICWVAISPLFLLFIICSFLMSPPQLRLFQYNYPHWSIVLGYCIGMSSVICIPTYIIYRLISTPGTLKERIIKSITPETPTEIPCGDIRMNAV
T1 sequence (P18090 whole entry): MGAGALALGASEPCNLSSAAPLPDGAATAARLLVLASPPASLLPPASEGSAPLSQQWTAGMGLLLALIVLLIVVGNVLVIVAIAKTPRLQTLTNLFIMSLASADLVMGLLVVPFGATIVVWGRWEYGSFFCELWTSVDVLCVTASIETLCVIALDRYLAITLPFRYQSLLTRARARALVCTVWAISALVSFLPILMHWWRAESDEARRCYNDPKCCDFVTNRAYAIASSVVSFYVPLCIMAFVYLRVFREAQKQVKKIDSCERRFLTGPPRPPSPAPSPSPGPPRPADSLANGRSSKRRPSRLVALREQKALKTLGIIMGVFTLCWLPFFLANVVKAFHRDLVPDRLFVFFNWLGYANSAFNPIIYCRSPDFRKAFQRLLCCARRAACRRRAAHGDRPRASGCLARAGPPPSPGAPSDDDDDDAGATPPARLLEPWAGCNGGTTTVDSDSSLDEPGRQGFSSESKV

CC=Cc1ccc(OCC(O)CN2CCN(c3cccc(Cl)c3)CC2)c(OC)c1 (stereo not drawn) [Compound 1]
Ki (M2): > 10 µM | LPS-induced death (rats): did not prevent | survival time after LPS (rats): did prolong survival time | Ki (β1 receptors): 0.0728 µM | mean BP and HR [1]: dose-dependent decrease | phenylephrine- and isoprenaline-induced changes in BP and HR [1]: inhibited | BP and HR after intra-cisternal injection and NTS microinjection (anesthetized rats [2]; central administration): increased BP and HR | clonidine-induced hypotension and bradycardia (anesthetized rats [2]; high dose (0.3 μmol)): reduced both | clonidine-induced bradycardia (anesthetized rats [2]; low dose (0.03 μmol)): did not inhibit | clonidine-induced hypotension (anesthetized rats [2]; low dose (0.03 μmol)): reduced | IC50 [3]: 0.00363 µM | aortic contractility of LPS-treated rats versus vehicle group ([4]; 1 mg kg−1 i.v. before or after application of LPS, listed as KMST): improved the aortic contractility better than in vehicle group; also recorded: increased aortic contractility more than the vehicle group | pD2 at 3rd hr [4, 6]: 6.29 ± 0.08 | pD2 at 5th hr [4, 6]: 5.57 ± 0.17 | pD2 at 3rd hr [4, 7]: 7.16 ± 0.18 | pD2 at 5th hr [4, 7]: 6.29 ± 0.11 | IC50 (5-HT re-uptake): 34.3 µM | α1 pA2 value (α1-adrenergic receptor): 7.97±0.39 | α2 pA2 value (α2-adrenergic receptor): 7.40±0.38 | aortic hyporeactivity and second prolonged hypotensive reaction induced by LPS (anesthetized rats [5]): inhibited | Ki (β2 receptors): > 10 µM
